“And” between values parts separate entries of the source, which are not always exact repeats. Identical values can stand only once. Counter-ions that a name gives are not always drawn.

By IC50 is commonly meant the concentration that gives 50% inhibition. By viability is commonly meant a read-out of living cells in per cent, often relative to untreated cells.

One data set has as its system A549 cells. In words: MTT assay, IC50 and MTC. The note with it: for IC50 fold higher than that for compound 2 / MTC (maximum tolerated concentration): A549 cells, MTT; for MTC (maximum tolerated concentration): 24 h of treatment; for IC50: Homo sapiens, A549, 24 h, read-out: IC50 ± SEM. Background: Tetrazolium assays rely on reduction of a dye to a coloured formazan, in cell work by metabolically active cells.

The test system of the next data set is BALB/c mice. Kind of data set: Safe use evaluation in vivo (MTD, symptoms, blood biochemistry, histopathology). On the set-up: key to piloerection / ataxia / prostration / tremor / excitation / saber-like tail / stooping / hyper/hypoventilation / drop of eyelids / lacrimation / convulsion: + (mild); ++ (moderate); +++ (severe). The note with it: for ALP / ALT / AST / Amylase / Creatinine / Glucose / Urea: plasma 48 h after MTD i.p. From the text: Mild to moderate signs of intoxication could be observed once the MTD (maximum tolerated dose) was reached. In vivo, MTD is described as the highest dose of a given compound that can be administered before showing signs of toxicity (based on the same dose regimen or series) and whose excess would be expected to be fatal, yielding unreliable results. Therefore, a staged approach (including core and intermediate dose levels) has become a suitable strategy in this regard.
The symptoms described in Tables S1 (in Supplementary Materials) and S2 (in Supplementary Materials) diminished spontaneously within 2 h. After observing these symptoms, MTD thresholds were set at 100, 200, 100, 200, 2000, and 650 mg/kg for compounds 4, 5, 6, 7, 8, and 10, respectively. Animals receiving MTD were further examined by necropsy 48 h after administration. Plasma (reflecting biochemical changes in blood), intestine with mesentery (site of administration), and liver and kidney (elimination organs) were collected to evaluate the toxic potential of the tested compounds. For evaluation of the impact of the compounds on organ function, we performed blood biochemistry test 48 h after administration. The test focused on seven important indicators: glucose and amylase for normal function of pancreas, alanine aminotransferase (ALT), aspartate aminotransferase (AST), and alkaline phosphatase (ALP) for the normal function of liver, and urea and creatinine for the normal function of kidneys. […] According to Thoolen et al., focal necrosis can be occasionally seen in untreated rodents and therefore is not pathognomonic of hepatotoxicity, which is consistent with our findings.
Both male and female BALB/c mice (Velaz s r.o., Prague, Czech Republic) with an average weight of 21 ± 0.8 g and 21 ± 0.8 g, respectively, were selected for the safe use evaluation in vivo. The mice were housed in environmentally controlled breeding units (Faculty of Military Health Sciences vivarium; temperature 21 ± 1 °C, 12/12 h light/dark cycle) with access to food (Cerea corp., Pardubice, Czech Republic) and water ad libitum. The acclimatization period of the mice was at least 10 days before each experiment. All experimental procedures and protocols were reviewed and approved by the Ethics Committee of the Faculty of Military Health Sciences in Hradec Kralove, University of Defence in Brno. Compounds 2, 3, 4, 5, 6, 7, 8, 9, and 10 were dissolved in physiological saline solution (B. Braun Melsungen AG, Melsungen, Germany) and injected intraperitoneally (i.p.) into the corresponding mouse groups, which were composed of two males and two females. Several doses were administered to determine the maximum tolerated dose (MTD), which was assessed by close observation for signs of toxicity within the first two hours after administration of the compounds, and then regularly over the following 48 h. The observed symptoms were registered according to the laboratory Animal Science Association UK guidelines (for a detailed description, see [36]. After 48 h, the surviving animals were euthanized with CO2 and evaluated by basic macroscopic necropsy. Venous blood was collected into heparinized tubes (Scanlab Systems, Prague, Czech Republic) and the plasma was separated in a U-320R centrifuge (Boeco, Hamburg, Germany) to further evaluate the toxic potential of the tested compounds. The concentrations of glucose, urea, and creatinine and the levels of alanine aminotransferase (ALT), aspartate aminotransferase (AST), alkaline phosphatase (ALP), and amylase were evaluated in a qualified biochemical laboratory of the University Hospital Hradec Kralove (Hradec Kralove, Czech Republic). Additionally, intestine, liver, and kidney samples were collected for histopathologic examination. […]

Data set [1] can be described thus: WST-1 cytotoxicity test, A2780. It counts as cell-based. The note with it: human, A2780 cells, 48 h, WST-1, mean ± SD of three experiments, read-out: relative viability (%) compared to untreated control; for viability at 48 h, 10 µM: A2780, 10 µM; for viability at 48 h, 100 µM: A2780, 100 µM. As to the method:
(§1) In this study, the cytotoxic effects of nine new compounds (2, 3, 4, 5, 6, 7, 8, 9, 10) were tested on 10 human cell lines (nine cancer and one non-cancer cell line). The cell lines were treated with each compound at concentrations of 10 µM and 100 µM for 48 h. The proliferation capacity of the treated cells was determined by WST-1 test and compared against the proliferation rate of the untreated control cells (100%).
(§2) The cell lines Jurkat, MOLT-4, A2780, A549, HT-29, PANC-1, HeLa, MCF-7, SAOS-2, and MRC-5 (all purchased from Sigma Aldrich, Czech Republic) were included in this study. All cell lines were maintained according to the provider’s guidelines, and plated and treated in 96-well plates (500 to 30 × 10^3 cells per well). The tested compounds 2, 3, 4, 5, 6, 7, 8, 9, and 10 were dissolved in 0.1% DMSO and kept in 10 mM stock solutions. Before use, the stock solution was diluted in culture media at ratios of 1:100 and 1:1000. The studied cell lines were treated with the compounds 2, 3, 4, 5, 6, 7, 8, 9, and 10 at concentrations of 10 and 100 µM for 48 h. Control cells were tested in culture media with and without DMSO (0.1%). The cells were also treated with 1 µM doxorubicin as a cytotoxicity control.
(§3) The WST-1 (2-(4-iodophenyl)-3-(4-nitrophenyl)-5-(2,4-disulfophenyl)-2H-tetrazolium, monosodium salt) test (Roche, Mannheim, Germany) was used according to the manufacturer’s protocol to determine cell viability in all 10 cell lines 48 h after treatment with the tested compounds. The cells were analyzed in a Tecan Infinite M200 spectrometer (Tecan Group, Männedorf, Switzerland) at 440 nm.

A short description of data set [2]: WST-1 cytotoxicity test, A549. It counts as cell-based. The note with it: human, A549 cells, 48 h, WST-1, mean ± SD of three experiments, read-out: relative viability (%) compared to untreated control; for viability at 48 h, 10 µM: A549, 10 µM; for viability at 48 h, 100 µM: A549, 100 µM. The protocol:
as §1, §2, §3

A short description of data set [3]: WST-1 cytotoxicity test, HT-29. Particulars: human, HT-29 cells, 48 h, WST-1, mean ± SD of three experiments, read-out: relative viability (%) compared to untreated control; for viability at 48 h, 10 µM: HT-29, 10 µM; for viability at 48 h, 100 µM: HT-29, 100 µM. It is filed as cell-based. The protocol: as §1, §2, §3
Setting [4] is: female BALB/c mice, animals 1 and 2.
[5] abbreviates: female mice, at MTD i.p., animals 1 and 2.
Where [6] appears, read: male BALB/c mice, animals 1 and 2.
[7] abbreviates: male mice, at MTD i.p., animals 1 and 2.

Method for A549 cells: In further experiments, MTT (3-(4,5-di-methylthiazol-2-yl)-2,5-diphenyltetrazolium bromide) assay was employed to evaluate the toxicological indexes of the newly synthesized compounds, including IC50 (half-maximal inhibitory concentration) and MTC (maximum tolerated concentration).
IC50 and MTC were determined through MTT assays. The MTT assay was performed according to [35]. In brief, the A549 cell line was plated in 96-well plates (100 µL, 9 × 10^3 cells per well) and incubated overnight. The tested compounds were prepared in phosphate buffer saline (PBS; Sigma–Aldrich) and serially diluted in DMEM (Dulbecco’s Modified Eagle Medium). An untreated control was included as a viability standard in each plate. After 24 h of treatment, the viability of A549 cells was measured at 570 nm. All experiments were performed in triplicate. The GraphPad Prism statistics software v5.04 (GraphPad Software Inc., San Diego, CA, USA) was used to calculate the IC50 values for parameter nonlinear regression. Values are expressed as mean ± SEM.

As to `OCCN1CCN(CC(O)CN2CCN(CCO)CC2)CC1` [Compound 8, 1.3-bis [4-(2-hydroxyethyl)piperazin-1-yl)propan-2-ol tetrahydrochloride], in the data set with A549 cells, the “IC50 fold higher than that for compound 2” value (shortened to “IC50 fold higher than that”) turned out to be 625 fold, the “MTC (maximum tolerated concentration)” value is reported as 6.25 mM and the 50% inhibitory concentration (IC50) was over 25000 µM. Further, in the data set with BALB/c mice (setting [4]), the ALP was 121 U/L and 81 U/L; the ALT is 20 U/L and 23 U/L; the AST was 78 U/L and 67 U/L; the Amylase was 1798 U/L and 2455 U/L. Also, in the data set with BALB/c mice (setting [4]), the Creatinine worked out at 79 µg/dL; the Glucose is 171 mg/dL and 210 mg/dL; the Urea is 35 mg/dL and 40 mg/dL. In the data set with BALB/c mice (setting [5]), the excitation result is given as “+” and the tremor result is listed as “+”. In addition, in the data set on BALB/c mice (setting [6]), the ALP was 71 U/L and 82 U/L; the ALT was 26 U/L and 22 U/L; the AST is 65 U/L and 56 U/L; the Amylase was 2674 U/L and 2327 U/L. Moreover, in the data set on BALB/c mice (setting [6]), the Creatinine was 57 µg/dL and 56 µg/dL; the Glucose was 202 mg/dL and 249 mg/dL; the Urea was 41 mg/dL and 37 mg/dL. In addition, in the data set with BALB/c mice (setting [7]), the excitation result is “+”, the tremor entry is given as “+”, the “weight at 24 h (%)” value is -3.8% and the “weight at 48 h (%)” value is -2.9%. Besides, in data set [1], the viability at 48 h, 10 µM stood at 104 ± 4% and the viability at 48 h, 100 µM stood at 76 ± 10%. In addition, in data set [2], the viability at 48 h, 10 µM turned out to be 97 ± 5% and the viability at 48 h, 100 µM is 111 ± 11%. In data set [3], the viability at 48 h, 10 µM was 101 ± 1% and the viability at 48 h, 100 µM is 154 ± 11%.

Take `Cc1cc(OCC(O)CN2CCN(CCO)CC2)ccc1Cl.Cl.Cl` (stereo not shown) [Compound 4, 1-(4-chloro-3-methylphenoxy)-3-(4-(2-hydroxyethyl)piperazin-1-yl)propan-2-ol dihydrochloride]: in the data set with A549 cells, the “IC50 fold higher than that” value is given as 16.0 fold, the “MTC (maximum tolerated concentration)” value turned out to be 0.05 mM and the IC50 is 640 ± 30 µM. For the same compound, the “histopathological change: focal necrosis” value in the data set with BALB/c mice (at MTD i.p., necropsy 48 h after administration, one animal each) is recorded as “one small focus”. Further, in the data set on BALB/c mice (setting [4]), the ALP was 83 U/L and 76 U/L; the ALT worked out at 28 U/L; the AST was 93 U/L and 61 U/L; the Amylase was 2632 U/L and 2216 U/L. In addition, in the data set with BALB/c mice (setting [4]), the Creatinine is 78 µg/dL and 79 µg/dL; the Glucose was 237 mg/dL and 228 mg/dL; the Urea is 65 mg/dL and 38 mg/dL. For the same compound, in the data set on BALB/c mice (setting [5]), the drop of eyelids entry is given as “+”; the prostration entry is recorded as “+”; the “weight at 24 h (%)” value was -5.7% and -4.1%; the “weight at 48 h (%)” value is -7.3% and -7.9%. Also, in the data set on BALB/c mice (setting [6]), the ALP is 77 U/L and 63 U/L; the ALT is 41 U/L and 43 U/L; the AST is 124 U/L and 121 U/L; the Amylase was 1905 U/L and 2464 U/L. Moreover, in the data set with BALB/c mice (setting [6]), the Creatinine is 79 µg/dL and 45 µg/dL; the Glucose is 226 mg/dL and 227 mg/dL; the Urea was 39 mg/dL and 53 mg/dL. Also, in the data set with BALB/c mice (setting [7]), the hyper/hypoventilation result is reported as “+”; the prostration result is “+”; the “weight at 24 h (%)” value was -2.6% and -3.0%; the “weight at 48 h (%)” value was -4.6% and -3.7%. For the same compound, in data set [1], the viability at 48 h, 10 µM worked out at 98 ± 2% and the viability at 48 h, 100 µM is 89 ± 1%. Also, in data set [2], the viability at 48 h, 10 µM was 100 ± 4% and the viability at 48 h, 100 µM stood at 99%. For the same compound, in data set [3], the viability at 48 h, 10 µM was determined as 100 ± 2% and the viability at 48 h, 100 µM was 83 ± 4%.

Take `Cl.Cl.OC(CNc1ccccc1)CNc1ccccc1` [Compound 9, 1,3-bis(phenylamino)propan-2-ol dihydrochloride]: in the data set on A549 cells, the “IC50 fold higher than that” value amounted to 6.0 fold, the “MTC (maximum tolerated concentration)” value is recorded as 0.09 mM and the concentration for half-maximal inhibition (IC50) is 240 ± 10 µM. Also, in data set [1], the viability at 48 h, 10 µM came out at 90 ± 3% and the viability at 48 h, 100 µM came out at 64 ± 5%. Besides, in data set [2], the viability at 48 h, 10 µM turned out to be 107 ± 11% and the viability at 48 h, 100 µM was determined as 98 ± 13%. Moreover, in data set [3], the viability at 48 h, 10 µM was determined as 102 ± 5% and the viability at 48 h, 100 µM stood at 148 ± 2%.

The record behind these values is publication PMC7038073, “Substituted Piperazines as Novel Potential Radioprotective Agents” (Molecules, 2020).
